Data: the supplement of paper PMC10307832

Tests used:
Assay in all cases: relative viability (nuclei count vs DMSO), 5 days (fraction); higher = more cells survive
[1] = compound: COc1cc(-c2nn([C@H]3CC[C@H](N4CCN(C(C)=O)CC4)CC3)c3ncnc(N)c23)ccc1NC(=O)c1cc2ccccc2n1C + CC(=O)c1c(C)c2cnc(Nc3ccc(N4CCNCC4)cn3)nc2n(C2CCCC2)c1=O [Palbociclib] (partner 0.5 µM)
In short: (§1)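 Five library-drug doses in √10 steps were combined with a fixed anchor-drug dose, or a single drug was given alone, by pin tool to lung cancer cell lines in 1536-well plates the day after seeding. Nuclei were stained and counted after 5 days. Relative viability is the nuclei count in treated wells over that in vehicle wells, taken as the median of duplicate plates.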

[2] = compound: COc1cc(-c2nn([C@H]3CC[C@H](N4CCN(C(C)=O)CC4)CC3)c3ncnc(N)c23)ccc1NC(=O)c1cc2ccccc2n1C + O=C(c1cc(Cc2n[nH]c(=O)c3ccccc23)ccc1F)N1CCN(C(=O)C2CC2)CC1 [Olaparib] (partner 8 µM)
In short: as §1

[3] = compound: COc1cc(-c2nn([C@H]3CC[C@H](N4CCN(C(C)=O)CC4)CC3)c3ncnc(N)c23)ccc1NC(=O)c1cc2ccccc2n1C + COc1cccc2cc(-c3nc([C@H]4CC[C@H](C(=O)O)CC4)n4ncnc(N)c34)[nH]c12 [OSI-027] (partner 0.5 µM)
In short: as §1

[4] = compound: COc1cc(-c2nn([C@H]3CC[C@H](N4CCN(C(C)=O)CC4)CC3)c3ncnc(N)c23)ccc1NC(=O)c1cc2ccccc2n1C + CS(=O)(=O)N1CCN(Cc2cc3nc(-c4cccc5[nH]ncc45)nc(N4CCOCC4)c3s2)CC1 [Pictilisib] (partner 1 µM)
In short: as §1

Midostaurin + Foretinib = compound: CO[C@@H]1[C@H](N(C)C(=O)c2ccccc2)C[C@H]2O[C@]1(C)n1c3ccccc3c3c4c(c5c6ccccc6n2c5c31)C(=O)NC4 [Midostaurin] + COc1cc2c(Oc3ccc(NC(=O)C4(C(=O)Nc5ccc(F)cc5)CC4)cc3F)ccnc2cc1OCCCN1CCOCC1 [Foretinib] (partner 0.25 µM)
In short: as §1

Row | Cell Line | relative viability ([1]; first compound 0.0128 µM) | relative viability ([1]; first compound 0.04048 µM) | relative viability ([1]; first compound 0.128 µM) | relative viability ([1]; first compound 1.28 µM) | relative viability ([2]; first compound 0.0128 µM) | relative viability ([2]; first compound 0.04048 µM) | relative viability ([2]; first compound 0.128 µM) | relative viability ([2]; first compound 1.28 µM) | relative viability ([3]; first compound 0.0128 µM) | relative viability ([3]; first compound 0.04048 µM) | relative viability ([3]; first compound 0.128 µM) | relative viability ([3]; first compound 1.28 µM) | relative viability ([4]; first compound 0.0128 µM) | relative viability ([4]; first compound 0.04048 µM) | relative viability ([4]; first compound 0.128 µM) | relative viability ([4]; first compound 1.28 µM) | relative viability (Midostaurin + Foretinib; first compound 0.01 µM) | relative viability (Midostaurin + Foretinib; first compound 0.03162 µM) | relative viability (Midostaurin + Foretinib; first compound 0.1 µM) | relative viability (Midostaurin + Foretinib; first compound 0.3162 µM)
1 | 201T | 0.353 | 0.402 | 0.337 | 0.294 | 0.899 | 0.896 | 0.767 | 0.623 | 0.646 | 0.765 | 0.746 | 0.339 | 0.729 | 0.639 | 0.571 | 0.432 | 1.15 | 0.988 | 1.14 | 1.17
2 | A549 |  |  |  |  | 0.302 | 0.47 | 0.465 | 0.271 |  |  |  |  | 0.538 | 0.63 | 0.429 | 0.501 | 0.871 | 0.781 | 0.939 | 0.99
3 | A-427 | 0.544 | 0.554 | 0.551 | 0.521 | 0.768 | 0.737 | 0.782 | 0.754 | 0.497 |  | 0.456 | 0.45 | 0.652 | 0.127 | 0.703 | 0.493 | 1.06 | 1.08 | 0.903 | 1.03
4 | ABC-1 | 0.646 | 0.84 | 0.391 | 0.469 | 0.6 | 0.835 | 0.665 | 0.806 | 0.499 | 0.434 | 0.384 | 0.377 | 0.805 | 0.648 | 0.613 | 0.631 | 1.03 | 1.14 | 0.828 | 1.11
5 | BEN | 0.485 | 0.466 | 0.435 | 0.457 | 1.1 | 1.05 | 1.02 | 0.848 | 0.27 | 0.296 | 0.311 | 0.291 | 0.559 | 0.54 | 0.58 | 0.432 | 0.719 | 0.803 | 0.966 | 0.667
6 | CAL-12T | 0.485 | 0.277 | 0.459 | 0.24 | 0.682 | 0.763 | 0.811 | 0.697 | 0.638 | 0.497 | 0.7 | 0.461 | 0.392 | 0.397 | 0.512 | 0.281 | 1.17 | 0.959 | 0.733 | 1.11
7 | COR-L23 | 0.324 | 0.253 | 0.313 | 0.24 | 0.347 | 0.41 | 0.367 | 0.395 | 0.753 | 0.752 | 0.71 | 0.672 | 0.919 | 0.666 | 0.801 | 0.839 | 1.03 | 0.954 | 0.9 | 0.892
8 | COR-L 105 | 0.388 | 0.474 | 0.4 | 0.302 | 0.798 | 0.676 | 0.594 | 0.478 | 0.59 | 0.799 | 0.636 | 0.343 | 0.417 | 0.427 | 0.321 | 0.243 | 1.04 | 1.04 | 0.909 | 1.09
9 | Calu-6 |  |  |  |  | 0.581 | 0.611 | 0.516 | 0.424 |  |  |  |  | 0.916 | 0.893 | 0.826 | 0.76 | 0.879 | 0.921 | 0.89 | 0.835
10 | ChaGo-K-1 | 0.925 | 0.985 | 0.873 | 0.668 | 0.488 | 0.452 | 0.409 | 0.328 | 0.607 | 0.532 | 0.519 | 0.464 | 0.66 | 0.669 | 0.587 | 0.644 | 0.888 | 0.99 | 0.785 | 0.946
11 | EBC-1 |  |  |  |  | 0.679 | 0.746 | 0.546 | 0.654 |  |  |  |  | 0.407 | 0.447 | 0.416 | 0.393 | 0.104 | 0.103 | 0.112 | 0.102
12 | EKVX | 0.383 | 0.47 | 0.357 | 0.271 | 1.01 | 0.972 | 0.774 | 0.409 | 0.765 | 0.853 | 0.618 | 0.54 | 0.458 | 0.475 | 0.401 | 0.245 | 0.824 | 0.76 | 0.702 | 0.78
13 | EMC-BAC-2 | 0.551 | 0.582 | 0.528 | 0.514 | 0.52 | 0.645 | 0.473 | 0.5 | 0.347 | 0.531 | 0.385 | 0.352 | 0.547 | 0.501 | 0.504 | 0.494 | 0.961 | 0.828 | 0.822 | 0.708
14 | EPLC-272H | 0.352 | 0.327 | 0.337 | 0.301 | 0.666 | 1.01 | 0.729 | 0.589 | 0.27 |  | 0.293 | 0.264 | 0.369 | 0.258 | 0.29 | 0.311 | 0.822 |  | 0.653 | 0.606
15 | H3255 | 0.324 | 0.316 | 0.349 | 0.318 | 0.616 | 0.579 | 0.558 | 0.491 | 0.564 | 0.476 | 0.573 | 0.552 | 0.523 | 0.408 | 0.49 | 0.278 | 0.894 | 0.793 | 0.833 | 0.959
16 | HARA | 0.268 | 0.241 | 0.246 | 0.185 | 0.873 | 0.923 | 0.78 | 0.445 | 0.489 | 0.312 | 0.482 | 0.248 | 0.454 | 0.395 | 0.349 | 0.362 | 0.904 | 0.887 | 0.91 | 0.891
